Laboratory results published in ChEMBL document CHEMBL3885861, “Open TG-GATES”.

Organism: Rattus norvegicus
Assay: Open TG-GATES - Regimen: Daily Repeat
Assay type: toxicity, organism-based, Sprague-Dawley
Design: regimen Daily Repeat, gender Male, age 6 weeks
Settings: in vivo, po, 25 mg/kg, route gavage, dose level Middle; for APTT / Bas / Eos / Fbg / Hb / Ht / Lym / MCH / MCHC / MCV / Mono / Neu / PT / Plat / RBC / Ret / WBC: tissue Blood; for KIDNEY_L / KIDNEY_R / KIDNEY_TOTAL: tissue Kidney; for LIVER: tissue Liver; for A/G / ALP / ALT / AST / BUN / CRE / Ca / Cl / DBIL / GLC / IP / K / LDH / Na / PL / RALB / TBIL / TC / TG / TP / gamma-GTP: tissue Plasma

SMILES: NC1=NC(=O)C(c2ccccc2)O1 (configuration not stated) [PEMOLINE]
- TERMINAL_BW (72 h, time 3 day): 222.4 g
- APTT (72 h, time 3 day): 16.7 s
- Bas (72 h, time 3 day): 0%
- Eos (72 h, time 3 day): 1%
- Fbg (72 h, time 3 day): 288.4 mg/dL
- Hb (72 h, time 3 day): 13.3 g/dL
- Ht (72 h, time 3 day): 39%
- Lym (72 h, time 3 day): 76.2%
- MCH (72 h, time 3 day): 21.3 pg
- MCHC (72 h, time 3 day): 33.9%
- MCV (72 h, time 3 day): 62.6 fL
- Mono (72 h, time 3 day): 3%
- Neu (72 h, time 3 day): 19.4%
- PT (72 h, time 3 day): 13 s
- Plat (72 h, time 3 day): 109.7 x10_4/uL
- RBC (72 h, time 3 day): 623.8 x10_4/ul
- Ret (72 h, time 3 day): 6.1%
- WBC (72 h, time 3 day): 79.9 x10_2/uL
- KIDNEY_L (72 h, time 3 day): 1 g
- KIDNEY_R (72 h, time 3 day): 0.9 g
- KIDNEY_TOTAL (72 h, time 3 day): 1.9 g
- LIVER (72 h, time 3 day): 9.9 g
- A/G (72 h, time 3 day): 0.9
- ALP (72 h, time 3 day): 1654.8 IU/L
- ALT (72 h, time 3 day): 41.8 IU/L
- AST (72 h, time 3 day): 72.6 IU/L
- BUN (72 h, time 3 day): 13.8 mg/dL
- CRE (72 h, time 3 day): 0.2 mg/dL
- Ca (72 h, time 3 day): 10.7 mg/dL
- Cl (72 h, time 3 day): 105.8 meq/L
- DBIL (72 h, time 3 day): 0.018 mg/dL
- GLC (72 h, time 3 day): 177.4 mg/dL
- IP (72 h, time 3 day): 7.5 mg/dL
- K (72 h, time 3 day): 4.1 meq/L
- LDH (72 h, time 3 day): 54.2 IU/L
- Na (72 h, time 3 day): 142.2 meq/L
- PL (72 h, time 3 day): 130.6 mg/dL
- RALB (72 h, time 3 day): 2.6 g/dL
- TBIL (72 h, time 3 day): 0.03 mg/dL
- TC (72 h, time 3 day): 79.8 mg/dL
- TG (72 h, time 3 day): 40 mg/dL
- TP (72 h, time 3 day): 5.4 g/dL
- gamma-GTP (72 h, time 3 day): 1 IU/L
- TERMINAL_BW ([…], time 7 day): 260.2 g
- TERMINAL_BW ([…], time 14 day): 319 g
- TERMINAL_BW ([…], time 28 day): 384.9 g
- APTT ([…], time 7 day): 15.8 s
- Bas ([…], time 7 day): 0%
- Eos ([…], time 7 day): 1%
- Fbg ([…], time 7 day): 268.6 mg/dL
- Hb ([…], time 7 day): 13.4 g/dL
- Ht ([…], time 7 day): 39.5%
- Lym ([…], time 7 day): 73.4%
- MCH ([…], time 7 day): 20.9 pg
- MCHC ([…], time 7 day): 34%
- MCV ([…], time 7 day): 61.5 fL
- Mono ([…], time 7 day): 3%
- Neu ([…], time 7 day): 21.8%
- PT ([…], time 7 day): 13.1 s
- Plat ([…], time 7 day): 116 x10_4/uL
- RBC ([…], time 7 day): 642.2 x10_4/ul
- Ret ([…], time 7 day): 5.8%
- WBC ([…], time 7 day): 107.7 x10_2/uL
- APTT ([…], time 14 day): 16.6 s
- Bas ([…], time 14 day): 0%
- Eos ([…], time 14 day): 1%
- Fbg ([…], time 14 day): 294.2 mg/dL
- Hb ([…], time 14 day): 14.7 g/dL
- Ht ([…], time 14 day): 42.4%
- Lym ([…], time 14 day): 78.8%
- MCH ([…], time 14 day): 21.3 pg
- MCHC ([…], time 14 day): 34.7%
- MCV ([…], time 14 day): 61.3 fL
- Mono ([…], time 14 day): 2.6%
- Neu ([…], time 14 day): 17.2%
- PT ([…], time 14 day): 13.1 s
- Plat ([…], time 14 day): 114.8 x10_4/uL
- RBC ([…], time 14 day): 692.2 x10_4/ul
- Ret ([…], time 14 day): 4.6%
- WBC ([…], time 14 day): 86.6 x10_2/uL
- APTT ([…], time 28 day): 17.9 s
- Bas ([…], time 28 day): 0.6%
- Eos ([…], time 28 day): 1%
- Fbg ([…], time 28 day): 269 mg/dL
- Hb ([…], time 28 day): 15.9 g/dL
- Ht ([…], time 28 day): 44.1%
- Lym ([…], time 28 day): 80%
- MCH ([…], time 28 day): 20.6 pg
- MCHC ([…], time 28 day): 36.1%
- MCV ([…], time 28 day): 57.1 fL
- Mono ([…], time 28 day): 2.4%
- Neu ([…], time 28 day): 15.2%
- PT ([…], time 28 day): 12.7 s
- Plat ([…], time 28 day): 109.5 x10_4/uL
- RBC ([…], time 28 day): 771.4 x10_4/ul
- Ret ([…], time 28 day): 2.6%
- WBC ([…], time 28 day): 116.8 x10_2/uL
- KIDNEY_L ([…], time 7 day): 1.1 g
- KIDNEY_R ([…], time 7 day): 1.1 g
- KIDNEY_TOTAL ([…], time 7 day): 2.3 g
- KIDNEY_L ([…], time 14 day): 1.3 g
- KIDNEY_R ([…], time 14 day): 1.3 g
- KIDNEY_TOTAL ([…], time 14 day): 2.5 g
- KIDNEY_L ([…], time 28 day): 1.4 g
- KIDNEY_R ([…], time 28 day): 1.3 g
- KIDNEY_TOTAL ([…], time 28 day): 2.7 g
- LIVER ([…], time 7 day): 11.6 g
- LIVER ([…], time 14 day): 14 g
- LIVER ([…], time 28 day): 14.4 g
- A/G ([…], time 7 day): 0.9
- ALP ([…], time 7 day): 1546.6 IU/L
- ALT ([…], time 7 day): 44.4 IU/L
- AST ([…], time 7 day): 75.6 IU/L
- BUN ([…], time 7 day): 15.6 mg/dL
- CRE ([…], time 7 day): 0.2 mg/dL
- Ca ([…], time 7 day): 10.4 mg/dL
- Cl ([…], time 7 day): 104.4 meq/L
- DBIL ([…], time 7 day): 0.016 mg/dL
- GLC ([…], time 7 day): 179 mg/dL
- IP ([…], time 7 day): 8 mg/dL
- K ([…], time 7 day): 4.2 meq/L
- LDH ([…], time 7 day): 75.6 IU/L
- Na ([…], time 7 day): 142 meq/L
- PL ([…], time 7 day): 141.6 mg/dL
- RALB ([…], time 7 day): 2.5 g/dL
- TBIL ([…], time 7 day): 0.024 mg/dL
- TC ([…], time 7 day): 73.4 mg/dL
- TG ([…], time 7 day): 117.8 mg/dL
- TP ([…], time 7 day): 5.4 g/dL
- gamma-GTP ([…], time 7 day): 1 IU/L
- A/G ([…], time 14 day): 0.8
- ALP ([…], time 14 day): 1343.2 IU/L
- ALT ([…], time 14 day): 46.6 IU/L
- AST ([…], time 14 day): 72.2 IU/L
- BUN ([…], time 14 day): 16.8 mg/dL
- CRE ([…], time 14 day): 0.2 mg/dL
- Ca ([…], time 14 day): 11.2 mg/dL
- Cl ([…], time 14 day): 105.2 meq/L
- DBIL ([…], time 14 day): 0.014 mg/dL
- GLC ([…], time 14 day): 182.6 mg/dL
- IP ([…], time 14 day): 8.7 mg/dL
- K ([…], time 14 day): 4 meq/L
- LDH ([…], time 14 day): 68.4 IU/L
- Na ([…], time 14 day): 144.2 meq/L
- PL ([…], time 14 day): 158.6 mg/dL
- RALB ([…], time 14 day): 2.7 g/dL
- TBIL ([…], time 14 day): 0.022 mg/dL
- TC ([…], time 14 day): 83.6 mg/dL
- TG ([…], time 14 day): 119.4 mg/dL
- TP ([…], time 14 day): 6 g/dL
- gamma-GTP ([…], time 14 day): 1 IU/L
- A/G ([…], time 28 day): 0.8
- ALP ([…], time 28 day): 1018.2 IU/L
- ALT ([…], time 28 day): 37.8 IU/L
- AST ([…], time 28 day): 66.8 IU/L
- BUN ([…], time 28 day): 16.6 mg/dL
- CRE ([…], time 28 day): 0.2 mg/dL
- Ca ([…], time 28 day): 11.2 mg/dL
- Cl ([…], time 28 day): 105.2 meq/L
- DBIL ([…], time 28 day): 0.016 mg/dL
- GLC ([…], time 28 day): 179.4 mg/dL
- IP ([…], time 28 day): 7.5 mg/dL
- K ([…], time 28 day): 3.9 meq/L
- LDH ([…], time 28 day): 76.8 IU/L
- Na ([…], time 28 day): 143.4 meq/L
- PL ([…], time 28 day): 134.4 mg/dL
- RALB ([…], time 28 day): 2.7 g/dL
- TBIL ([…], time 28 day): 0.03 mg/dL
- TC ([…], time 28 day): 71.6 mg/dL
- TG ([…], time 28 day): 134.8 mg/dL
- TP ([…], time 28 day): 6.2 g/dL
- gamma-GTP ([…], time 28 day): 1 IU/L
